Assays:
[1] = system: FaDu (human head and neck cancer cells); assay: In vivo tumor growth inhibition, FaDu xenograft; parameters: species or system BALB/c nude mice
Experimental: FaDu (human head and neck cancer cells): Female 6-8 weeks old BALB/c nude mice were inoculated subcutaneously on the right flank with FaDu tumor cells (5×10^6) in 0.1 ml of EMEM medium without serum for tumor development. The treatments were started when the mean tumor size reached approximately 194 mm^3 at Day 21 post inoculation and continued until end of study by twice daily oral gavage dosing of HC-7366 at listed doses (vehicle, 0.3 mg/kg HC-7366, 1 mg/kg HC-7366, 3 mg/kg HC-7366, 10 mg/kg HC-7366, or 30 mg/kg HC-7366, FIG. 11-13).
(§1) [formula] • 2.2.2 Tumor Measurements: The measurement of tumor size was conducted three times weekly with a caliper and recorded. The tumor volume (mm^3) was estimated using the formula: TV=a×b^2/2, where “a” and “b” is long and short diameters of a tumor, respectively. Tumor volume was calculated using the formula [tumor volume (mm^3)=π/6×length×width^2).
(§2) Regression was calculated using the formula=100×ΔT/T initial, if ΔT<0. Animals with 0 mm^3 tumor volume (no measurable tumor) for three consecutive measurements were considered as complete responders and animals with 50% tumor regressions were partial responders.

[2] = system: LNCaP (human prostate cancer cells); assay: In vivo tumor growth inhibition, LNCaP xenograft; parameters: species or system NOD SCID mice; conditions: ≥3 mg/kg twice daily oral
Experimental: LNCaP (human prostate cancer cells): Male 6-8 weeks old NOD SCID mice were inoculated subcutaneously on the right flank with LNCaP tumor cells (1×10^7) in 0.1 ml with Matrigel (1:1) in RPMI1640 with 10% fetal bovine serum (FBS) for tumor development. The treatments were started when the mean tumor size reached approximately 207 mm^3 at Day 14 post inoculation and continued until end of study by twice daily oral gavage dosing of HC-7366 at listed doses (vehicle, 0.3 mg/kg HC-7366, 1 mg/kg HC-7366, 3 mg/kg HC-7366, 10 mg/kg HC-7366, or 30 mg/kg HC-7366 twice daily, FIG. 14).
as §1, §2

[3] = system: MFE280 (human endometrial cancer cells); assay: In vivo tumor growth inhibition, MFE280 xenograft; parameters: species or system Athymic Nude-Foxn1nu mice
[4] = system: HCT116 (human colorectal cancer cells); assay: In vivo tumor growth inhibition, HCT116 xenograft; parameters: species or system Athymic Nude-Foxn1nu mice
Experimental: HCT116 (human colorectal cancer cells): Female 7-8 weeks old Athymic Nude-Foxn1nu mice were inoculated subcutaneously on the right flank with HCT116 tumor cells (5 ×10^6) in 0.1 ml of McCoy's 5a medium without serum for tumor development. Single agent HC-7366 was dosed at 3 or 30 mg/kg (twice daily, orally), Trametinib at 1 mg/kg (once a day, orally) and Alpelisib at 50 mg/kg (once a day, orally). HC-7366 was combined with either Trametinib or Alpelisib. The treatments were started when the mean tumor size reached approximately 270 mm^3 at Day 18 post inoculation and continued until end of study (FIGS. 63-64).
as §1, §2

[5] = system: HIF1α and HIF2a in FaDu tumors; assay: Tumor IHC, FaDu tumors; type: in vivo, BALB/c nude mice; conditions: end of study
Experimental: Immunohistochemical analysis was carried out on tumors that were collected at the end of the study described in Example 6. Formalin-fixed paraffin-embedded samples were sectioned at 5 μm thickness and mounted on Superfrost Plus microscope slides (Fisher Scientific). All immunohistochemical (IHC) staining was performed on Bond Rx auto-stainer (Leica Biosystems) using the conventional TSA-amplified detection system. Primary antibodies used were as follows: a-ASNS (Cell Signaling Technology #92479), a-PUMA (Cell Signaling Technology #98672), a-PSAT1 (Proteintech #10501-1-AP), a-PHGDH (Proteintech #14719-1-AP), HIF-1a-Novus Biologicals NB 100-479, HIF-2a-Novus Biologicals NB100-122SS, and GLUT-1-EMB Biosciences 07-1401. […]
Slides were imaged with Aperio Versa 200 (Leica Biosystems) whole-slide scanner using 10×/0.32NA objective, and the data were analyzed using custom-written macros in ImageJ/FIJI (NIH). Briefly, 150 μm of outer edges of the tumor sections and necrotic regions (determined by lack of 4′,6-diamidino-2-phenylindole (DAPI) signal or presence of condensed DNA) were eliminated from the analysis. […] Scans of immune-staining were processed to remove background, then total intensity value above appropriate threshold levels was measured and normalized to tissue area. […]

ATF4, ASNS in FaDu cells = assay: Jess protein analysis, FaDu cells; type: cell-based, human; conditions: 0.01 and 0.1 μM, 72 hr, sgControl vs sgGCN2
Experimental: Cell lysates were obtained from FaDu sgControl or sgGCN2 cells treated with HC-7366 (0, 0.01, 0.1 and 1 μM) for 72 hr. Ice cold 1x radioimmunoprecipitation assay (RIPA) lysis buffer supplemented with protease and phosphatase inhibitors was added to the cell pellets, on ice. After 30 min on ice the cell lysates were centrifuged at 4° C., 12,000 rpm for 15 minutes and the supernatant was collected. Protein concentration was determined using BCA kit. The cell lysates were mixed with 5×SDS loading buffer and denatured at 95° C. for 5 minutes. 1 μg lysate was run on Jess capillary and results were analyzed by compass simple western software. The following primary antibodies were used: p-GCN2 T899 (Abcam #ab75836), GCN2 (Cell Signaling #3302), ATF4 (Cell Signaling #11815) and ASNS (Proteintech #14681). Anti-rabbit secondary antibody was from ProteinSimple #042-206.

MOLM-16 cells = assay: Seahorse XF Mito stress test (OCR) and Glycolysis Stress Test (ECAR); type: cell-based, human; conditions: 0.001, 0.1 or 10 μM, 16 hrs; strongest effect at 0.1 μM
Experimental: MOLM-16 cells were treated with 0.001, 0.1 or 10 μM HC-7366 for 16 hrs and the Seahorse XF Glycolysis Stress Test (ECAR; extracellular acidification rate) and Seahorse XF Mito stress test (OCR; oxygen consumption rate) (Agilent technologies, CA, USA) were performed.

For `CNC(=O)c1ncn2cc(-c3c(F)ccc(NS(=O)(=O)c4cc(Cl)cnc4OC)c3F)ncc12` [HC-7366, 6-(3-((5-chloro-2-methoxypyridine)-3-sulfonamido)-2,6-difluorophenyl)-N-methylimidazo[1,5-a]pyrazine-1-carboxamide], the tumor regression ([1]; 1 mg/kg twice daily oral) was 33%, the TGI ([1]; all doses) was “significant TGI” and the tumor growth inhibition [2] was 61-65%. For the same compound, the tumor growth inhibition ([3]; HC-7366 0.5 mg/kg twice daily oral) was 45%, the tumor growth inhibition ([3]; HC-7366 2 mg/kg twice daily oral) was 53% and the TGI ([4]; HC-7366 3 mg/kg twice daily, alpelisib study (FIG. 63), trend) was ~38%. For the same compound, the “effect on tumor growth” value ([4]; HC-7366 30 mg/kg twice daily, alpelisib study (FIG. 63)) was “did not reduce tumor growth”, the efficacy ([4]; HC-7366 at either 3 or 30 mg/kg, trametinib study (FIG. 64)) was “did not show efficacy” and the HIF1α protein levels [5] was “significantly reduced”. The HIF2a protein levels [5] was “significantly reduced”, the “levels of ATF4 and ASNS” value (ATF4, ASNS in FaDu cells) was “GCN2-dependent increase” and the “OCR (oxygen consumption rate)” value (MOLM-16 cells) was “significantly reduced”. For the same compound, the “glycolysis (ECAR)” value (MOLM-16 cells) was “significantly reduced”.

— patent US20250339426A1, “GCN2 MODULATOR FOR TREATING CANCER” (HIBERCELL, INC., priority 2022, published 2025)
